The values below come from the Deep4Chem optical property database.

One series in a line: solvent given as SMILES. Particulars: in CCOC(C)=O.
The compound `OCC1O[C@@H](Cc2cc(O)cc(/C=C/c3ccc(O)c(O)c3)c2)[C@H](O)[C@@H](O)[C@@H]1O` (stereo partly drawn) had an emission maximum of 372 nm.

Staying with this series, now noted: in CCOCC.
For the compound `OCC1O[C@@H](Cc2cc(O)cc(/C=C/c3ccc(O)c(O)c3)c2)[C@H](O)[C@@H](O)[C@@H]1O` (stereo partly drawn), the emission maximum is recorded as 372 nm.

Still in this series, the particulars now being: in CN(C)C=O.
`CCn1c2sccc2c2c3nsnc3c3c4ccsc4n(CC)c3c21` yielded an emission maximum of 552 nm.
As for `OCC1O[C@@H](Cc2cc(O)cc(/C=C/c3ccc(O)c(O)c3)c2)[C@H](O)[C@@H](O)[C@@H]1O` (stereo partly drawn), the emission maximum was 378 nm.

The series is the same for the next values; noted with them: in CO.
As to `O=C(O)c1ccc(-c2cnc(-c3ccc(N(c4ccccc4)c4ccccc4)cc3)s2)cc1`, the emission maximum stood at 496 nm.
Still for that read-out and setting: the same measure for `C#CCOc1ccc(/C=C/C2=[N+]3C(=C(c4ccc(N(CC)CC)cc4)c4c(C)cc(/C=C/c5ccc(OCC(=O)OC)cc5)n4[B-]3(F)F)C(C)=C2)cc1`: 655 nm; for `CC1=[N+]2C(=C(c3ccc(N4CCOCC4)cc3)c3ccc(C)n3[B-]2(F)F)C=C1`: 521 nm.
On the same count and under the same terms, the result for `OCC1O[C@@H](Cc2cc(O)cc(/C=C/c3ccc(O)c(O)c3)c2)[C@H](O)[C@@H](O)[C@@H]1O` (stereo partly drawn) reads 394 nm.

Staying with this series, now noted: in CS(C)=O.
Regarding `OCC1O[C@@H](Cc2cc(O)cc(/C=C/c3ccc(O)c(O)c3)c2)[C@H](O)[C@@H](O)[C@@H]1O` (stereo partly drawn), the emission maximum turned out to be 381 nm.
The same measure, in the same setting: the same measure for `CCCCn1cc(/C=C/c2cc(=O)oc3cc(C)ccc23)c2ccccc21`: 532 nm.

The series is the same for the next values; noted with them: in Cc1ccccc1.
Consider `Cc1nnc(-c2cc(-c3nnc(C)o3)c(-n3c4ccccc4c4ccccc43)cc2-n2c3ccccc3c3ccccc32)o1`, for which the emission maximum amounted to 444 nm.
For the compound `O=C(c1ccccc1)c1ccc(-n2c3ccccc3c3c2c2ccccc2n3-c2ccccc2)cc1`, the emission maximum is recorded as 520 nm.
Still for that read-out and setting: the result for `CCn1c2sccc2c2c3nsnc3c3c4ccsc4n(CC)c3c21` reads 508 nm.
Still for that read-out and setting: the result for `CC1=[N+]2C(=C(c3ccc(N4CCOCC4)cc3)c3ccc(C)n3[B-]2(F)F)C=C1` reads 524 nm; that for `c1ccc(-c2nc(-c3ccccc3)nc(-n3c4ccccc4c4cc(-n5c6ccccc6c6ccccc65)cc(-n5c6ccccc6c6ccccc65)c43)n2)cc1`, 465.06 nm; that for `CCCCN1C(=O)c2cccc3c(OC)ccc(c23)C1=O`, 422 nm.
On to `CC1(C)c2ccccc2N(c2ccc3c(c2)c2cc(N4c5ccccc5C(C)(C)c5ccccc54)ccc2c2nc(C#N)c(C#N)nc32)c2ccccc21`, for which the emission maximum was 678 nm.
Same read-out and setting: the result for `OCC1O[C@@H](Cc2cc(O)cc(/C=C/c3ccc(O)c(O)c3)c2)[C@H](O)[C@@H](O)[C@@H]1O` (stereo partly drawn) reads 371 nm.

The series is the same for the next values; noted with them: in ClC(Cl)Cl.
For the compound `CCCCCCCCCCCCOc1cc2c3c(ccc4c5c(NC6CCCCC6)cc6c7c(ccc(c1c34)c75)C(=O)N(C1CCCCC1)C6=O)C(=O)N(C1CCCCC1)C2=O`, the emission maximum is reported as 722 nm.
`F[B-]1(F)OC(c2cccc(Br)c2)=Cc2ccc3ccccc3[n+]21`: the emission maximum was 435 nm.
The same measure, in the same setting: the result for `CCCCn1c2ccccc2c2ccc3c4cc(-c5ccc(C(F)(F)F)cc5)ccc4n(CCCC)c3c21` reads 402 nm.
The same measure, in the same setting: the same measure for `COc1cc(/C=C/c2nc3ccccc3s2)c(OC)cc1/C=C/c1nc(C)nc(/C=C/c2cc(OC)c(/C=C/c3nc4ccccc4s3)cc2OC)n1`: 500 nm.
Still for that read-out and setting: the same measure for `CC1=[N+]2C(=C(c3ccc(N4CCOCC4)cc3)c3ccc(C)n3[B-]2(F)F)C=C1`: 531 nm.
In the case of `CC(C)(C)c1ccc2oc3nc4oc5ccc(-n6c7ccccc7c(=O)c7ccccc76)cc5c4cc3c2c1`, the emission maximum was 409 nm.
In turn, `OCC1O[C@@H](Cc2cc(O)cc(/C=C/c3ccc(O)c(O)c3)c2)[C@H](O)[C@@H](O)[C@@H]1O` (stereo partly drawn) showed an emission maximum of 373 nm.
Same read-out and setting: the same measure for `CCCCn1cc(/C=C/c2cc(=O)oc3cc(C)ccc23)c2ccccc21`: 474 nm.

The series is the same for the next values; noted with them: in ClCCl.
Turning to `c1ccc(-c2c3ccccc3nc3cc4ccccc4cc23)cc1`, the emission maximum came to 525 nm.
With `CCOC(=O)c1c(-c2c(Cl)c3cc(C)ccc3oc2=O)nn(-c2ccccc2)c1C(=O)OCC`, the emission maximum was determined as 417 nm.
The compound `COc1cc2c(cc1OC)C1=C[C@H](c3ccccc3)C3(C(C#N)=C(C#N)N1CC2)c1cc(Br)ccc1-c1ccc(Br)cc13` came in with an emission maximum of 403 nm.
Same read-out and setting: the result for `COc1cc(/C=C/c2nc3ccccc3s2)c(OC)cc1/C=C/c1nc(C)nc(/C=C/c2cc(OC)c(/C=C/c3nc4ccccc4s3)cc2OC)n1` reads 502 nm.
The same measure, in the same setting: the same measure for `CCn1c2sccc2c2c3nsnc3c3c4ccsc4n(CC)c3c21`: 548 nm.
Consider `CCCCn1c(-c2ccc(-c3nnc(-c4ccc5ccccc5c4)o3)cc2)nc2c3ccccc3c3ccccc3c21`, for which the emission maximum stood at 448 nm.
On the same count and under the same terms, the result for `COC(=O)c1[nH]c(-c2ccccc2)c2nnc3c4ccccc4oc3c12` reads 473 nm; that for `Cc1cc(O)c(C(=O)/C=C/c2ccccc2Cl)c(=O)o1`, 469 nm.

The series is the same for the next values; noted with them: in O.
Turning to `CNc1ccc(/C=C/C(=O)OC)cc1`, the emission maximum was found to be 470 nm.
Still for that read-out and setting: the same measure for `C/C=C/C=C/C1=NC(=C\c2ccc([O-])cc2)/C(=O)N1C`: 565 nm; for `OCC1O[C@@H](Cc2cc(O)cc(/C=C/c3ccc(O)c(O)c3)c2)[C@H](O)[C@@H](O)[C@@H]1O` (stereo partly drawn): 403 nm.

Still in this series, the particulars now being: in O=P(c1ccccc1)(c1ccccc1)c1cccc(-c2cc(-n3c4ccccc4c4ccccc43)cc(-n3c4ccccc4c4ccccc43)c2)n1.
Turning to `CC1(C)c2ccccc2N(c2ccc3c(c2)c2cc(N4c5ccccc5C(C)(C)c5ccccc54)ccc2c2nc(C#N)c(C#N)nc32)c2ccccc21`, the emission maximum came out at 618 nm.

Still in this series, the particulars now being: in O=P(c1ccccc1)(c1ccccc1)c1ccccc1Oc1ccccc1P(=O)(c1ccccc1)c1ccccc1.
Consider `Cc1nnc(-c2cc(-c3nnc(C)o3)c(-n3c4ccccc4c4ccccc43)cc2-n2c3ccccc3c3ccccc32)o1`, for which the emission maximum amounted to 448 nm.

Still in this series, the particulars now being: in OCCOCCO.
`CC1CC=C(c2ccc(-c3ccc(C#N)s3)s2)CC1` (stereo not drawn): the emission maximum is reported as 451 nm.
On the same count and under the same terms, the same measure for `O=CC1=C(c2ccc(-c3cccs3)s2)CCC1`: 527 nm.

The series is the same for the next values; noted with them: in c1ccncc1.
As to `CC1CC=C(c2ccc(-c3ccc(C#N)s3)s2)CC1` (stereo not drawn), the emission maximum was 452 nm.
In turn, `O=CC1=C(c2ccc(-c3cccs3)s2)CCC1` registered an emission maximum of 494 nm.
